What was measured:
[1] = system: mouse alopecia areata model; assay: Symptom-suppressing effect on a mouse alopecia areata model (therapeutic protocol); assay type: in vivo, C3H/HeJ mice; settings: Day 91; 10 mg/kg orally once daily Day 49 to Day 90; n=6; vehicle group 9.2±0.83; Day 49 mean 3.6±0.66
Description: The effect of cyclic amine derivative (I) or a pharmacologically acceptable salt thereof in a mouse alopecia areata model was evaluated using increase in the hair loss score as an index of worsening of symptoms. The mouse alopecia areata model was prepared using the same method as in Example 73.
In other words, female C3H/HeJ mice (CLEA Japan, Inc.) with spontaneous hair loss in 70% or more of the body surface were used as donor mice. The donor mice were euthanized by cervical dislocation, and then the inguinal, axilla, and auricular lymph nodes were aseptically removed. The lymph nodes were filtered through a 70 μm cell strainer to isolate lymphocytes. The lymphocytes were washed with Advanced RPMI media (containing 10% fetal bovine serum, 2 mM Gluta Max, and 100 U/mL penicillin streptomycin), and then suspended in Advanced RPMI media to which Human rIL-2 (Roche; final concentration of 30 U/mL), Mouse rIL-7 (R&D systems, Inc.; final concentration of 25 ng/mL), and Mouse rIL-15 (R&D systems, Inc.; final concentration of 50 ng/mL) were added so that the concentration was 2×10^6 cells/mL. […]
On Day 49, grouping was performed using the mouse hair loss score calculated in the same manner as in Example 73 as an index (the hair loss score on Day 49 (mean±standard error): 3.6±0.66). […]
On Day 91, the mouse hair loss score was calculated in the same manner as in Example 73. […]

[2] = system: mouse alopecia areata model; assay: Symptom-suppressing effect on a mouse alopecia areata model (preventive protocol); assay type: in vivo, C3H/HeJ mice; settings: for hair loss score (mean±standard error): Day 63, 10 mg/kg orally once daily Day 0 to Day 62, n=10, vehicle group 3.2±1.13; for range of hair loss (FIG. 1): abdomen on Day 63, compared with the disease group (vehicle treatment group), 10 mg/kg orally once daily
Description: The effect of cyclic amine derivative (I) or a pharmacologically acceptable salt thereof in a mouse alopecia areata model was evaluated using increase in the hair loss score as an index of worsening of symptoms. The mouse alopecia areata model was prepared by partially modifying the method by Wang et al. (Journal of Investigative Dermatology, 2015, Vol. 135, p. 2530-2532).
Female C3H/HeJ mice (CLEA Japan, Inc.) with spontaneous hair loss in 70% or more of the body surface were used as donor mice. The donor mice were euthanized by cervical dislocation, and then the inguinal, axilla, and auricular lymph nodes were aseptically removed. The lymph nodes were filtered through a 70 μm cell strainer to isolate lymphocytes. The lymphocytes were washed with Advanced RPMI media (containing 10% fetal bovine serum, 2 mM Gluta Max, and 100 U/mL penicillin streptomycin), and then suspended in Advanced RPMI media to which Human rIL-2 (Roche; final concentration of 30 U/mL), Mouse rIL-7 (R&D systems, Inc.; final concentration of 25 ng/mL), and Mouse rIL-15 (R&D systems, Inc.; final concentration of 50 ng/mL) were added so that the concentration was 2×10^6 cells/mL. The lymphocytes were seeded in 1 mL portions on 24-well plates, and 500 μL of Dynabead mouse T-activator CD3/CD28 (Life Technologies) was added, followed by culture in a CO2 incubator. Culture was performed for 6 days so that the cell density was 1.5 to 2.0×10^6 cells/mL during culture.
The day of transplantation of lymphocytes derived from donor mice was regarded as Day 0. Two days before the day of transplantation (Day −2), hair on the back, which would be a transplantation site, of 10-week old female C3H/HeJ mice without hair loss (CLEA Japan, Inc.) was removed with an electric hair clipper under isoflurane anesthesia (1.5 cm×1.5 cm). Furthermore, grouping was performed using the body weight on Day −1 as an index.
On Day 0, lymphocytes in which beads were removed with EasySep magnet (Stemcell Technologies Inc.) were collected into new tubes. The collected lymphocytes were suspended in PBS(−) so that the concentration was 10×10^7 cells/mL, filled in a 1 mL syringe with a 26G injection needle, and stored on ice until transplantation. Under isoflurane anesthesia, the filled lymphocyte suspension was intradermally injected into the hair removal site in 100 μL/body portions. […]
On Day 63, photographs of the back and the abdomen of the mice were taken under isoflurane anesthesia. The status of hair loss was evaluated by partially modifying the method by Alli et al. (Journal of Immunology, 2012, Vol. 188, p. 477-486). In other words, the ratio of the area of hair loss site to the body surface area was scored in accordance with the criteria mentioned in Table 4, and defined as the hair loss score. […]

SMILES	hair loss score (mean±standard error) [1]	hair loss score (mean±standard error) [2]	range of hair loss (FIG. 1) [2]
CN(CC(=O)N1CCCC[C@@H]1C(=O)Nc1ccc(-c2ccccc2OC(F)(F)F)c(Cl)c1)S(C)(=O)=O [Compound of Example 29, (R)—N-(2-chloro-2′-(trifluoromethoxy)-[1,1′-biphenyl]-4-yl)-1-(2-(N-methylmethylsulfonamide)acetyl)piperidine-2-carboxamide]	4.3±1.41	1.3±0.67	very smaller
O=C(Nc1ccc(-c2ccccc2OC(F)(F)F)c(Cl)c1)[C@H]1CCCCN1C(=O)Cn1cnnn1 [Compound of Example 57, (R)-1-(2-(1H-tetrazol-1-yl)acetyl)-N-(2-chloro-2′-(trifluoromethoxy)-[1,1′-biphenyl]-4-yl)piperidine-2-carboxamide]	5.5±1.43	1.8±0.88	very smaller
